Measurements taken from ChEMBL document CHEMBL1795315, “Syntheses of 2-NBDG analogues for monitoring stereoselective uptake of D-glucose” (Bioorg Med Chem Lett, 2011).

Key:
Type in all cases: ADME
[1] = Drug uptake in C57BL/6J mouse neuronal cytosol at 100 uM after 1 min by confocal microscopy co-treated with 20 uM 2-TRLG
[2] = Drug uptake in C57BL/6J mouse neuronal cytosol at 20 uM after 1 min by confocal microscopy co-treated with 100 uM 2-NBDG
[3] = Drug uptake in C57BL/6J mouse neuronal cytosol at 20 uM after 1 min by confocal microscopy co-treated with 100 uM 2-NBDLG

Compound | Drug uptake [1] | Drug uptake [2] | Drug uptake [3]
O=[N+]([O-])c1ccc(N[C@@H]2C(O)O[C@@H](CO)[C@H](O)[C@H]2O)c2nonc12 (stereo partly specified) | Not Active |  | 
O=S(=O)([O-])c1ccc(C2=c3cc4c5c(c3Oc3c2cc2c6c3CCCN6CCC2)CCC[N+]=5CCC4)c(S(=O)(=O)N[C@@H]2C(O)O[C@@H](CO)[C@H](O)[C@H]2O)c1 (stereo partly specified) |  | Not Active | Active
O=S(=O)([O-])c1cc(S(=O)(=O)N[C@@H]2C(O)O[C@@H](CO)[C@H](O)[C@H]2O)ccc1C1=c2cc3c4c(c2Oc2c1cc1c5c2CCCN5CCC1)CCC[N+]=4CCC3 (stereo partly specified) |  | Not Active | Active
O=[N+]([O-])c1ccc(N[C@H]2C(O)O[C@H](CO)[C@@H](O)[C@@H]2O)c2nonc12 (stereo partly specified) | Active |  | 
